SMILES strings stand for the structures.

In the experiment the target is T1, Tankyrase 1 (TNKS1) (Homo sapiens, UniProt O95271).
T1 construct: gene TNKS
Put plainly: fluorescence-based homogeneous NAD+ consumption activity assay. Format: biochemical.

T1 sequence (O95271 whole entry): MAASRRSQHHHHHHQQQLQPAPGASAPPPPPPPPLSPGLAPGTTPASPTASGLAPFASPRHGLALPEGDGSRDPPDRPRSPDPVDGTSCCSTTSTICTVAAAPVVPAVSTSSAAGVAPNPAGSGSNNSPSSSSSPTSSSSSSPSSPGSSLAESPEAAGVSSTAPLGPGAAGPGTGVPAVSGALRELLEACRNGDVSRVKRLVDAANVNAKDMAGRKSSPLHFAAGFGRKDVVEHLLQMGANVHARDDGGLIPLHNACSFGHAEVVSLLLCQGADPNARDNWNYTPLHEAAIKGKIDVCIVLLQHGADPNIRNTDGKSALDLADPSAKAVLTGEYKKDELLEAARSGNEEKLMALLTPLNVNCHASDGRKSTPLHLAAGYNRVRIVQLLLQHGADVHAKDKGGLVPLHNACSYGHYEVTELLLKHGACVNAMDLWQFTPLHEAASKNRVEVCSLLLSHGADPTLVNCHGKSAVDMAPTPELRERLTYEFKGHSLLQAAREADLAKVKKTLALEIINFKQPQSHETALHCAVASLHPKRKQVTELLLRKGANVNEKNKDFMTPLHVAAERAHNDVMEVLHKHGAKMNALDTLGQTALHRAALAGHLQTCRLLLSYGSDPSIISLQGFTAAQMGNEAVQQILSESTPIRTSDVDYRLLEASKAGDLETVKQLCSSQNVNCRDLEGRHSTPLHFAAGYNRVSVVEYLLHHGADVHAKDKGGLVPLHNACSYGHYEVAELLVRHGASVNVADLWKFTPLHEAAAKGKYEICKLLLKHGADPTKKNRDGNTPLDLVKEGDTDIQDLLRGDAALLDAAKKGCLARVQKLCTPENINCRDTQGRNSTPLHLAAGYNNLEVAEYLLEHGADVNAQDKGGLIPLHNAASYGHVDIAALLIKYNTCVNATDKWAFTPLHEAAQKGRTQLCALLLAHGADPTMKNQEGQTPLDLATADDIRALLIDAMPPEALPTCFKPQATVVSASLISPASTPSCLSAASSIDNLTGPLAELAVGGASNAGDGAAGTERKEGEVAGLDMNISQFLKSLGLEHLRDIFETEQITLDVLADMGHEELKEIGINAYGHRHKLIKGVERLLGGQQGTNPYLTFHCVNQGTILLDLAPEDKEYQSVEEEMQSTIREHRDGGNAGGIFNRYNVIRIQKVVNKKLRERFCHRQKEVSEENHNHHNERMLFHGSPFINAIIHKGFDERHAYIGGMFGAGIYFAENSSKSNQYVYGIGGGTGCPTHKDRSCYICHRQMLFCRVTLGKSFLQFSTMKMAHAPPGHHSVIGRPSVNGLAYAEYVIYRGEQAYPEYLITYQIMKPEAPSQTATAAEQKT

`COc1ccc(-n2c(SCCCN3C(=O)c4cccc5cccc(c45)C3=O)nnc2-c2ccncc2)cc1` [WIKI4] displayed an IC50 of 26 nM.

(Values after PMC3675114, “Structural Basis and Selectivity of Tankyrase Inhibition by a Wnt Signaling Inhibitor WIKI4” (PLoS ONE, 2013).)
